This note sets out measurements from patent publication US4188378A, “Anticancer and antiviral activity of 9-β-D-arabinofuranosyl-2-fluoroadenine” (The United States of America as represented by the …, priority 1978, dated 1980).

The series concerns L1210 cells. Description: Intracellular 2-F-AraATP levels in L1210 cells of treated mice. It counts as in vivo. Conditions: for level of F-AraATP in acid-soluble extracts (HPLC): L1210 cells, 80 mg/kg. The text has this:
It has been noted that the antitumor activity of the parent compound, 9-β-D-arabinofuranosyladenine (AraA), is enhanced by inhibition of adenosine deaminase and inhibition of DNA synthesis in tumor cells by AraA also is enhanced by concurrent inhibition of adenosine deaminase. […] This observation that 2-fluoroadenosine is not such a substrate for adenosine deaminase led to the synthesis of 9-β-D-arabinofuranosyl-2-fluoroadenine (2-F-AraA). […] The intracellular concentration of 2-F-AraATP in L1210 cells was 45, 156 and 220 nanomoles per 10^9 cells three hours after intraperitoneal treatment with 80, 150 and 400 mg/kg of 2-F-AraA.
Relative to activity against leukemia and antiviral activity, the following summation was found: Levels of F-AraATP in acid-soluble extracts prepared from L1210 and P388 leukemia cells in mice treated with 2-F-AraA (80 mg/kg) were determined by HPLC. […] Inhibition of DNA synthesis by 2-F-AraA (80 mg/kg) in L1210 and P388 leukemia cells in vivo was pronounced for 7 hours after treatment. […] 2-F-AraA was effective against P388 leukemia; % increase in median life span of mice treated with 80 and 52 mg/kg (q3hrsx8; days 1,5,9 after implant of 10^6 cells) was 170% and 150%.

In the case of `Nc1nc(F)nc2c1ncn2[C@@H]1O[C@H](CO)[C@@H](O)[C@@H]1O` [2-F-AraA, 9-β-D-arabinofuranosyl-2-fluoroadenine], the “2-F-AraATP in L1210 cells” value was “not found” (9 and 18 hours after a single dose of 80 and 150 mg/kg); “significant levels were present” (18 hours after a dose of 400 mg/kg). Moreover, the “intracellular pools of 2-F-AraATP in L1210 cells” value (BDFl mice treated with 2-F-AraA alone, versus AraATP from AraA plus adenosine deaminase inhibitor) was “comparable”. In addition, the “level of F-AraATP in acid-soluble extracts (HPLC)” value runs as follows: (1 to 6 hours after treatment) 30-50 nmoles/gm cells; (9 hours after treatment) “none was detected”. For the same molecule, the “levels of F-AraATP attainable in leukemia L1210 cells in mice, compared with AraATP after AraA” value (after administration of 2-F-AraA) was “much higher”.
